From patent US5070210A, “Novel ketenimines as intermediates for insecticides” (ICI Americas Inc., priority 1990, dated 1991)

Columns and labels:
Type in all cases: in vivo
[1] = test system: Housefly [Musca domestica]; assay: Housefly insecticidal test; conditions: μg per 25 female flies; mortality after 48 hours
Summary of the method: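 Dose range started at 100 μg per 25 female flies and went downward. Insects (1-2 days old) contacted a dried acetone/peanut-oil deposit in dishes; LC50 values come from dosage-mortality curves at 48 h.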

[2] = test system: Tobacco Budworm [Heliothis virescens (Fabricius)] eggs; assay: Tobacco budworm egg test; conditions: 2-day old eggs, percent in solution
Summary of the method: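 2-day eggs on paper towel, acetone dip, 0.1% and below; petri dish with larval diet, 78° F. Mortality read after control hatch and larval feeding. LC50 = % compound in solution, from dose-mortality curve.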

[3] = test system: Cabbage Looper [Trichoplusia ni (Hubner)]; assay: Cabbage looper insecticidal test; conditions: second-instar larvae, percent in solution; 3-5 days
Summary of the method: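 LC50 values, given as percent test compound in solution, were calculated from dosage-mortality curves. Squash cotyledons were immersed 2-3 s in acetone-water (50-50) dilutions starting at 0.1%, dried on a screen, then infested with five second-instar larvae. Mortality was read 3-5 days on.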

[4] = test system: Aster Leafhopper [Macrosteles fascifrens (Stal)]; assay: Aster leafhopper insecticidal test; conditions: adults/nymphs, percent in solution; 48 hours
Description: The compounds in Tables 1 and 2 above were tested for insecticidal activity using the following testing procedures. LC50 values, based on the results of these tests and calculated according to dosage-mortality curves, are expressed in Table 3.
Aster Leafhopper [Macrosteles fascifrens (Stal)]
Oat seedlings (Avena sp) were grown in a commercial potting soil in cups. When the plants were approximately 10 cm tall they were thinned to three plants per cup and dipped for 2-3 seconds in 50-50 acetone-water solutions of the test compounds. When the plants had dried, a clear plastic tube was placed over them and the bottom end pressed into the cup. Ten aster leafhopper adults/nymphs were then placed in each tube and the tops of the tubes covered with white organdy cloth. Mortality counts were made after 48 hours. Test concentrations ranged from 0.05% down to that at which 50% mortality occurred. The LC50 values are expressed below in Table 3 under the heading "LH" in terms of the percent of the test compound in the solution.

[5] = test system: Maize weevil [Sitophilus Zeamais (Motschulsky)]; assay: Maize weevil insecticidal test; conditions: adult weevils, percent in solution; 48 hours
Summary of the method: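 LC50, in percent of compound in solution, was derived from dosage-mortality curves after 48 h at about 25 °C. Ten adult weevils per container fed on four corn seeds briefly immersed in acetone:water (50:50) solutions of up to 0.01% and dried.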

Structure (SMILES) | LC50, HF [1] | LC50, TBW, E (TBW-E) [2] | LC50, CL [3] | LC50, LH [4] | LC50, MW [5]
CC(C)CC(=Nc1cc(Cl)cc(Cl)c1)OCc1cccc(Oc2ccccc2)c1 [Compound 10] | > 100 µg | > 0.1% | 0.01% | > 0.05% | –
CC(C)C(=Nc1cc(Cl)cc(Cl)c1)OCc1cccc(Oc2ccccc2)c1 [Compound 16] | 20 µg | 0.04% | 0.004% | 0.0005% | –
CC(C)C(=Nc1cc(Cl)c(Cl)c(Cl)c1)OCc1cccc(Oc2ccccc2)c1 [Compound 20] | 64 µg | < 0.1% | 0.0025% | 0.003% | –
Fc1ccc(N=C(OCc2cccc(Oc3ccccc3)c2)C(Cl)=C(Cl)Cl)cc1 [Compound 49] | > 100 µg | > 0.05% | 0.007% | > 0.05% | –
CC(C)C(=Nc1c(F)c(F)cc(F)c1F)OCc1cccc(Oc2ccccc2)c1 [Compound 57] | > 100 µg | 0.1% | 0.004% | 0.0005% | –
COc1ccc(OC)c(N=C(OCc2cccc(Oc3ccccc3)c2)C(C)C)c1 [Compound 69] | > 100 µg | > 0.1% | 0.09% | > 0.05% | –
CC(C)C(=Nc1ccc(OC(F)(F)F)cc1)OCc1cccc(Oc2ccccc2)c1 [Compound 70] | < 100 µg | 0.01% | < 0.1% | > 0.05% | –
CC(C)C(=Nc1ccc(C(F)(F)F)c(Cl)c1)OCc1cccc(Oc2ccccc2)c1 [Compound 83] | > 100 µg | > 0.1% | 0.007% | > 0.05% | –
Cc1ccc(N=C(OCc2cccc(Oc3ccccc3)c2)C(C)C)cc1Cl [Compound 90] | > 100 µg | 0.016% | > 0.1% | 0.001% | –
COc1c(Cl)cc(N=C(OCc2cccc(Oc3ccccc3)c2)C(C)C)cc1Cl [Compound 91] | 37 µg | > 0.01% | 0.002% | 0.003% | –
CC(C)C(=Nc1c(Cl)cc([N+](=O)[O-])cc1Cl)OCc1cccc(Oc2ccccc2)c1 [Compound 92] | > 100 µg | > 0.1% | 0.015% | > 0.05% | –
Clc1ccc(N=C(OCc2cccc(Oc3ccccc3)c2)C(Cl)Cl)c2ccccc12 [Compound 98] | > 100 µg | 0.1% | 0.016% | > 0.05% | –
Cc1c(Cl)cc(N=C(OCc2cccc(Oc3ccccc3)c2)C(C)C)cc1Cl [Compound 101] | 81 µg | > 0.1% | 0.0045% | 0.0008% | –
CCOC(=O)c1cc(N=C(OCc2cccc(Oc3ccccc3)c2)C(C)C)ccc1Cl [Compound 102] | > 100 µg | > 0.1% | 0.075% | > 0.05% | –
CC(C)(Cl)C(=Nc1ccc(C#N)c(Cl)c1)OCc1cccc(Oc2ccccc2)c1 [Compound 108] | 44 µg | > 0.1% | 0.002% | > 0.01% | –
CC(C)C(=Nc1c(F)cc(F)cc1Br)OCc1cccc(Oc2ccccc2)c1 [Compound 129] | > 100 µg | > 0.1% | 0.005% | 0.01% | –
CC(C)C(=Nc1ccc(Br)cc1)OCc1cccc(Oc2ccccc2)c1 [Compound 131] | 17 µg | > 0.1% | 0.0045% | 0.005% | –
CC(C)(C)C(=Nc1ccc(Br)cc1)OCc1cccc(Oc2ccccc2)c1 [Compound 135] | > 100 µg | > 0.1% | 0.004% | > 0.05% | –
CC(C)C(=Nc1ccc(I)cc1)OCc1cccc(Oc2ccccc2)c1 [Compound 137] | 18 µg | 0.04% | 0.003% | 0.008% | –

Structure (SMILES) | LC50, HF [1] | LC50, TBW, E (TBW-E) [2] | LC50, CL [3] | LC50, LH [4] | LC50, MW [5]
CCc1cccc(N=C(OCc2cccc(Oc3ccccc3)c2)C(C)C)c1 [Compound 154] | 25 µg | 0.1% | 0.004% | > 0.05% | –
CCc1ccc(N=C(OCc2cccc(Oc3ccc(F)cc3)c2)C(C)C)cc1 [Compound 159] | 25 µg | 0.08% | 0.001% | 0.0025% | –
CCc1ccc(N=C(OCc2cccc(Oc3ccccc3)c2)C(C)C)cc1 [Compound 161] | 15 µg | 0.07% | 0.0014% | 0.002% | –
CCc1cccc(N=C(OCc2cccc(Oc3ccccc3)c2)C(C)(C)C)c1 [Compound 162] | > 100 µg | > 0.1% | 0.035% | > 0.05% | –
CC(C)C(=Nc1ccc2c(c1)CCC2)OCc1cccc(Oc2ccccc2)c1 [Compound 187] | 15 µg | > 0.1% | 0.0025% | 0.0025% | –
CCCC(=Nc1ccc2c(c1)OCO2)OCc1cccc(Oc2ccccc2)c1 [Compound 188] | 12 µg | > 0.1% | 0.002% | > 0.05% | –
Cc1ccc(Oc2cccc(COC(=Nc3ccc(F)c(Cl)c3)C(C)C)c2)cc1 [Compound 225] | > 100 µg | > 0.1% | 0.0025% | > 0.05% | –
CC(C)C(=Nc1ccc(C(C)C)cc1)OCc1cccc(Oc2ccc(F)cc2)c1 [Compound 228] | > 100 µg | > 0.1% | 0.0025% | > 0.05% | –
CC(C)C(=Nc1ccc2c(c1)OC(C)(C)O2)OCc1ccc(F)c(Oc2ccccc2)c1 [Compound 242] | < 100 µg | > 0.1% | 0.00025% | > 0.05% | –
CC(C)C(=Nc1ccc(Br)c(F)c1)OCc1cccc(Oc2ccc(Cl)cc2)n1 [Compound 551] | < 100 µg | 0.035% | 0.00075% | – | > 0.01%
CCc1ccc(N=C(OCc2cccc(Oc3ccc(Cl)cc3)n2)C(C)C)cc1 [Compound 552] | > 100 µg | > 0.1% | 0.0016% | – | > 0.01%
CC(C)C(=Nc1ccc(Cl)cc1)OCc1cccc(Oc2ccccc2)n1 [Compound 553] | < 100 µg | 0.1% | < 0.1% | – | > 0.01%
CC(C)C(=Nc1ccc(Cl)cc1)OCc1cccc(Oc2ccc(Cl)cc2)n1 [Compound 554] | > 100 µg | 0.04% | 0.00075% | – | > 0.01%
CC(C)C(=Nc1ccc(Cl)c(C(F)(F)F)c1)OCc1cccc(Oc2ccccc2)n1 [Compound 555] | < 100 µg | > 0.1% | 0.002% | – | > 0.01%
CC(C)C(=Nc1ccc2c(c1)OC(F)(F)O2)OCc1cccc(Oc2ccccc2)n1 [Compound 556] | < 100 µg | 0.04% | 0.0007% | – | > 0.01%
CC(C)C(=Nc1cccc(Br)c1)OCc1cccc(Oc2ccc(Cl)cc2)n1 [Compound 557] | < 100 µg | > 0.1% | 0.0004% | – | > 0.01%
CC(C)C(=Nc1ccc(F)c(Br)c1)OCc1cccc(Oc2ccccc2)n1 [Compound 558] | < 100 µg | > 0.1% | 0.00045% | – | > 0.01%
CC(C)C(=Nc1ccc(F)c(F)c1)OCc1cccc(Oc2ccc(Cl)cc2)n1 [Compound 559] | < 100 µg | 0.017% | 0.00027% | – | > 0.01%
C=C(C)C(=Nc1ccc(C(F)(F)F)cc1)OCc1cccc(Oc2ccc(Cl)cc2)n1 [Compound 560] | < 100 µg | < 0.1% | 0.0015% | – | > 0.01%
